The conditions of data set [1]: cited from earlier work.
The next data set relates to trypsin. The conditions noted are these: cited from earlier work.
In another data set the test system is SARS-CoV. The conditions noted are these: mouse, in vivo; cited from earlier work.
The target of data set [2] is Recombinant Human TMPRSS2 (Homo sapiens, UniProt O15393). Kind of data set: TMPRSS2 fluorogenic biochemical assay.
The subject of another data set is TMPRSS2 (aa 148–492). The conditions noted are these: TMPRSS2 biochemical screen; cited from earlier work.
The test system of data set [3] is SARS-CoV-2-S-mediated pseudotyped particle entry. The note with it: cited from earlier work.
For the next data set, the system named is prostasin. The note with it: cited from earlier work.

Consider 8 compounds from publication PMC7507803 (ACS Pharmacology & Translational Science, 2020).

Residues, ends and D or L forms follow the SMILES beside them. *: point of attachment. AMC = Cc1cc(=O)oc2cc(N*)ccc12; Boc = CC(C)(C)OC(=O)* Some results are limits rather than exact numbers.

Sequence of Recombinant Human TMPRSS2 (O15393 106-492): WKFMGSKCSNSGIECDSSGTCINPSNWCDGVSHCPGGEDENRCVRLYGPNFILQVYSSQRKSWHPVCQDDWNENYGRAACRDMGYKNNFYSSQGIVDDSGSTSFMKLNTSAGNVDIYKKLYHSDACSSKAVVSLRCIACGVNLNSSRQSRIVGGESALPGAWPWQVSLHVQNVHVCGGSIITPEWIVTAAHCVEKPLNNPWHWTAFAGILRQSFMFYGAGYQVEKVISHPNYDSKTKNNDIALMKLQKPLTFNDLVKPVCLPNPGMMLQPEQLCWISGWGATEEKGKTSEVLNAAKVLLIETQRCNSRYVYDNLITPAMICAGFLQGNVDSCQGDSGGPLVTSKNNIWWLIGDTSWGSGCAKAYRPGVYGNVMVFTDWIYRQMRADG

Consider `N=C(N)Nc1ccc(C(=O)Oc2ccc(CC(=O)O)cc2)cc1` [FOY-251, 4-(4-guanidinobenzoyloxy)phenylacetic acid], for which the mean terminal half-life in data set [1] was 60 min.
As for `CN(C)C(=O)COC(=O)Cc1ccc(OC(=O)c2ccc(NC(=N)N)cc2)cc1` [camostat], in the data set on trypsin, the IC50 (in general, the concentration that inhibits the measured activity by half) was ~50 nM. For the same compound, in the data set with SARS-CoV, the SARS-CoV pathogenesis result is given as “mitigated SARS-CoV pathogenesis”. Moreover, the “t1/2 of hydrolysis in plasma” value in data set [1] (plasma) is on record as < 1 min.
For the compound `Cc1cc(=O)oc2cc(NC(=O)[C@H](CCCNC(=N)N)NC(=O)[C@H](C)NC(=O)[C@H](CCC(N)=O)NC(=O)OC(C)(C)C)ccc12` [Boc-Gln-Ala-Arg-AMC] (Boc-Gln-Ala-Arg-{AMC}), the “released AMC” value in data set [2] (60 min, peptide 10 μM, TMPRSS2 1 μM, Tris-HCl pH8) came out at 27%.
`N=C(N)c1ccc2cc(OC(=O)c3ccc(N=C(N)N)cc3)ccc2c1` [nafamostat]: in data set [1] (IV infusion), the “plasma half-life (t1/2)” value is reported as “about 23 min”.
For `CN(Cc1cc(Br)cc(Br)c1N)C1CCCCC1` [bromhexine], the IC50 in the data set on TMPRSS2 (aa 148–492) was 750 nM. Besides, the “inhibition of pseudotyped particle entry” value in data set [3] is on record as “lack of inhibiting SARS-CoV-2-S-mediated pseudotyped particle entry”. For the same compound, the “inhibition of TMPRSS2” value in data set [2] (dose–response, listed as Bromhexine hydrochloride) is on record as “no inhibition”.
Turning to `N=C(N)c1ccc2cc(O)ccc2c1` [6-amidino-2-naphthol], the inhibition of prostasin entry in the data set with prostasin was “do not inhibit”.
In the case of `N=C(N)Nc1ccc(C(=O)O)cc1` [4-guanidinobenzoic acid], the inhibition of prostasin result in the data set on prostasin is “do not inhibit”.
As for `Nc1c(Br)cc(Br)cc1CN[C@H]1CC[C@H](O)CC1` [ambroxol], the TMPRSS2 inhibition result in data set [2] (40 μM, data not shown) is “did not show any TMPRSS2 inhibition”.
